In paper PMC3963952, “The 2.1 Å Resolution Structure of Cyanopindolol-Bound β1-Adrenoceptor Identifies an Intramembrane Na^+ Ion that Stabilises the Ligand-Free Receptor” (PLoS ONE, 2014):

How the values were obtained:
[1] = target: β1AR (Meleagris gallopavo, UniProt P07700)
Procedure: For the thermostability assay for the ligand-free receptor, 1–2.5 mg of E. coli-expressed membrane protein was solubilised for 30 min on ice with 1% DDM and insoluble material was removed by centrifugation (5 min, 20,000 g). Samples were then adjusted to give the desired concentration of NaCl or choline chloride. Thermostability was measured by incubating the sample at the specified temperature for 30 min; reactions were placed on ice, and ^3H-DHA was added (50 nM final concentration) and equilibrated (2 h, 4°C). Receptor-bound and free radioligand were separated by spin gel filtration assays as described previously. Nonspecific binding was determined in the presence of 1 mM alprenolol. Radioactivity was counted on a MicroBeta TriLux scintillation counter (Perkin Elmer), and data were analyzed by nonlinear regression using Prism software (GraphPad).
Figure 4 Thermostability of β1AR mutants.

[2] = test system: A2AR; conditions: cited from earlier work
[3] = target: neurotensin receptor (NTSR1); design: method as in PMID 23051748; conditions: read-out: EC50 for the allosteric effect of Na+ on NTSR1; cited from earlier work

β1AR, sequence (P07700 whole entry): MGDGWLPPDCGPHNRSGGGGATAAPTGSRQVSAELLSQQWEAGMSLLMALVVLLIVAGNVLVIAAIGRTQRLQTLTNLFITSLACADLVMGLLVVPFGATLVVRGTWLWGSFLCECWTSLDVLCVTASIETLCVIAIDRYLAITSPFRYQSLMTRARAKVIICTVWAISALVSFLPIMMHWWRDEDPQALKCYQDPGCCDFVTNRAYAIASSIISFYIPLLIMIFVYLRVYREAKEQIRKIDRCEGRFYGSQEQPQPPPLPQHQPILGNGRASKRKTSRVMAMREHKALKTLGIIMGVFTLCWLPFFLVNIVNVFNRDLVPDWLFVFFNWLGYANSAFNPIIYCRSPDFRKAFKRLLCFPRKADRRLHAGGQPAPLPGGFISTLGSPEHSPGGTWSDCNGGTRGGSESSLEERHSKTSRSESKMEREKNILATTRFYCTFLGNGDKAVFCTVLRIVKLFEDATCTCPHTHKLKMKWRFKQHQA

| SMILES | decrease of β1AR thermostability in the absence of Na+ ([1]; ligand-free β1AR, 150 mM NaCl versus 150 mM choline chloride) [°C] | EC50 ([2]; also calculated from data in ref 21, read-out: EC50 for the allosteric effect of Na+ on A2AR) [mM] | Kd ([2]; no reference given, read-out: KD of Na+ binding to A2AR) [mM] | EC50 [3] [mM] | apparent Tm of dodecylmaltoside-solubilised ligand-free β1AR ([1]; in 150 mM of the named salt, heated 30 min, ±SEM) [°C] |
| --- | --- | --- | --- | --- | --- |
| [Cl-].[Na+] [Na^+] | 7.5 | 40 to 48 | 40 to 50 | 43 | – |
| C[N+](C)(C)CCO.[Cl-] [choline chloride] | – | – | – | – | 19.1±0.6 |
